Experimental data reported in PubChem BioAssay (NCI).
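Step 1: Grow cells in 96-well plates. Step 2: Expose to compound for 48 hours at 5 concentrations. Step 3: Interpolate endpoints linearly; if unreached, use highest concentration. At the GI50, growth is halved. TGI marks complete inhibition of growth.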

Experiments:
Test in all cases: NCI anticancer screen, dose series, 48 h
786-0 renal = tested on: 786-0 renal
A498 renal = tested on: A498 renal
A549 NSCLC = tested on: A549 NSCLC
ACHN renal = tested on: ACHN renal
BT-549 breast = tested on: BT-549 breast
CAKI-1 renal = tested on: CAKI-1 renal
CCRF-CEM leukemia = tested on: CCRF-CEM leukemia
COLO 205 colon = tested on: COLO 205 colon
DU-145 prostate = tested on: DU-145 prostate
EKVX NSCLC = tested on: EKVX NSCLC
HCC-2998 colon = tested on: HCC-2998 colon
HCT-116 colon = tested on: HCT-116 colon
HCT-15 colon = tested on: HCT-15 colon
HL-60(TB) leukemia = tested on: HL-60(TB) leukemia
HOP-62 NSCLC = tested on: HOP-62 NSCLC
HOP-92 NSCLC = tested on: HOP-92 NSCLC
HS 578T breast = tested on: HS 578T breast
HT29 colon = tested on: HT29 colon
IGROV1 ovarian = tested on: IGROV1 ovarian
K-562 leukemia = tested on: K-562 leukemia
KM12 colon = tested on: KM12 colon
LOX IMVI melanoma = tested on: LOX IMVI melanoma
M14 melanoma = tested on: M14 melanoma
MALME-3M melanoma = tested on: MALME-3M melanoma
MCF7 breast = tested on: MCF7 breast
MDA-MB-231 breast = tested on: MDA-MB-231 breast
MDA-MB-435 = tested on: MDA-MB-435
MOLT-4 leukemia = tested on: MOLT-4 leukemia
NCI-H226 lung = tested on: NCI-H226 lung
NCI-H23 lung = tested on: NCI-H23 lung
NCI-H460 lung = tested on: NCI-H460 lung
NCI-H522 lung = tested on: NCI-H522 lung
NCI/ADR-RES ovarian = tested on: NCI/ADR-RES ovarian
OVCAR-3 ovarian = tested on: OVCAR-3 ovarian
OVCAR-4 ovarian = tested on: OVCAR-4 ovarian
OVCAR-5 ovarian = tested on: OVCAR-5 ovarian
OVCAR-8 ovarian = tested on: OVCAR-8 ovarian
PC-3 prostate = tested on: PC-3 prostate
RPMI-8226 leukemia = tested on: RPMI-8226 leukemia
RXF 393 renal = tested on: RXF 393 renal
SF-268 CNS = tested on: SF-268 CNS
SF-295 CNS = tested on: SF-295 CNS
SF-539 CNS = tested on: SF-539 CNS
SK-MEL-2 melanoma = tested on: SK-MEL-2 melanoma
SK-MEL-28 melanoma = tested on: SK-MEL-28 melanoma
SK-MEL-5 melanoma = tested on: SK-MEL-5 melanoma
SK-OV-3 ovarian = tested on: SK-OV-3 ovarian
SN12C renal = tested on: SN12C renal
SNB-19 CNS = tested on: SNB-19 CNS
SNB-75 CNS = tested on: SNB-75 CNS
SR leukemia = tested on: SR leukemia
SW-620 colon = tested on: SW-620 colon
T-47D breast = tested on: T-47D breast
TK-10 renal = tested on: TK-10 renal
U251 CNS = tested on: U251 CNS
UACC-257 melanoma = tested on: UACC-257 melanoma
UACC-62 melanoma = tested on: UACC-62 melanoma
UO-31 renal = tested on: UO-31 renal

SMILES: CC(C)c1c(-c2ccccc2)nc2c(C#N)c[nH]n2c1=O
- GI50 (786-0 renal): 35.1 µM
- TGI (786-0 renal): > 100 µM
- GI50 (A498 renal): 13 µM
- TGI (A498 renal): 51.1 µM
- GI50 (A549 NSCLC): 33.4 µM
- TGI (A549 NSCLC): > 100 µM
- GI50 (ACHN renal): 30.6 µM
- TGI (ACHN renal): > 90.9 µM
- GI50 (BT-549 breast): 26.2 µM
- TGI (BT-549 breast): > 95.5 µM
- GI50 (CAKI-1 renal): 31.2 µM
- TGI (CAKI-1 renal): > 100 µM
- GI50 (CCRF-CEM leukemia): 28.5 µM
- TGI (CCRF-CEM leukemia): > 100 µM
- GI50 (COLO 205 colon): 25.1 µM
- TGI (COLO 205 colon): 75.2 µM
- GI50 (DU-145 prostate): 37.1 µM
- TGI (DU-145 prostate): > 100 µM
- GI50 (EKVX NSCLC): 49.4 µM
- TGI (EKVX NSCLC): > 100 µM
- GI50 (HCC-2998 colon): 29 µM
- TGI (HCC-2998 colon): > 100 µM
- GI50 (HCT-116 colon): 30.5 µM
- TGI (HCT-116 colon): > 100 µM
- GI50 (HCT-15 colon): 31.8 µM
- TGI (HCT-15 colon): > 100 µM
- GI50 (HL-60(TB) leukemia): 22.3 µM
- TGI (HL-60(TB) leukemia): 60.4 µM
- GI50 (HOP-62 NSCLC): 25.4 µM
- TGI (HOP-62 NSCLC): > 95.7 µM
- GI50 (HOP-92 NSCLC): 7.85 µM
- TGI (HOP-92 NSCLC): 49.6 µM
- GI50 (HS 578T breast): 29.7 µM
- TGI (HS 578T breast): 99.6 µM
- GI50 (HT29 colon): 33.9 µM
- TGI (HT29 colon): > 100 µM
- GI50 (IGROV1 ovarian): 34.3 µM
- TGI (IGROV1 ovarian): > 100 µM
- GI50 (K-562 leukemia): 33.8 µM
- TGI (K-562 leukemia): > 100 µM
- GI50 (KM12 colon): 31.7 µM
- TGI (KM12 colon): > 100 µM
- GI50 (LOX IMVI melanoma): 29 µM
- TGI (LOX IMVI melanoma): > 91.2 µM
- GI50 (M14 melanoma): 30.6 µM
- TGI (M14 melanoma): > 100 µM
- GI50 (MALME-3M melanoma): 24.3 µM
- TGI (MALME-3M melanoma): 73.3 µM
- GI50 (MCF7 breast): 26.2 µM
- TGI (MCF7 breast): > 91.5 µM
- GI50 (MDA-MB-231 breast): 33 µM
- TGI (MDA-MB-231 breast): > 100 µM
- GI50 (MDA-MB-435): 31.1 µM
- TGI (MDA-MB-435): > 100 µM
- GI50 (MOLT-4 leukemia): 32 µM
- TGI (MOLT-4 leukemia): > 100 µM
- GI50 (NCI-H226 lung): 27 µM
- TGI (NCI-H226 lung): > 87.7 µM
- GI50 (NCI-H23 lung): 26.1 µM
- TGI (NCI-H23 lung): > 79.6 µM
- GI50 (NCI-H460 lung): 32.6 µM
- TGI (NCI-H460 lung): > 100 µM
- GI50 (NCI-H522 lung): 26 µM
- TGI (NCI-H522 lung): 80 µM
- GI50 (NCI/ADR-RES ovarian): 31.2 µM
- TGI (NCI/ADR-RES ovarian): > 100 µM
- GI50 (OVCAR-3 ovarian): 25.2 µM
- TGI (OVCAR-3 ovarian): 63.8 µM
- GI50 (OVCAR-4 ovarian): 25.6 µM
- TGI (OVCAR-4 ovarian): > 90 µM
- GI50 (OVCAR-5 ovarian): 38.8 µM
- TGI (OVCAR-5 ovarian): > 100 µM
- GI50 (OVCAR-8 ovarian): 32.2 µM
- TGI (OVCAR-8 ovarian): > 100 µM
- GI50 (PC-3 prostate): 25.2 µM
- TGI (PC-3 prostate): > 73.5 µM
- GI50 (RPMI-8226 leukemia): 24.2 µM
- TGI (RPMI-8226 leukemia): 67.7 µM
- GI50 (RXF 393 renal): 29.3 µM
- TGI (RXF 393 renal): > 93.4 µM
- GI50 (SF-268 CNS): 28.8 µM
- TGI (SF-268 CNS): > 100 µM
- GI50 (SF-295 CNS): 28.7 µM
- TGI (SF-295 CNS): > 84 µM
- GI50 (SF-539 CNS): 29.4 µM
- TGI (SF-539 CNS): > 100 µM
- GI50 (SK-MEL-2 melanoma): 27.7 µM
- TGI (SK-MEL-2 melanoma): 78.8 µM
- GI50 (SK-MEL-28 melanoma): 33.5 µM
- TGI (SK-MEL-28 melanoma): > 100 µM
- GI50 (SK-MEL-5 melanoma): 19.6 µM
- TGI (SK-MEL-5 melanoma): 40.4 µM
- GI50 (SK-OV-3 ovarian): 27.2 µM
- TGI (SK-OV-3 ovarian): > 88.6 µM
- GI50 (SN12C renal): 29.2 µM
- TGI (SN12C renal): > 100 µM
- GI50 (SNB-19 CNS): 30.8 µM
- TGI (SNB-19 CNS): > 100 µM
- GI50 (SNB-75 CNS): 21.4 µM
- TGI (SNB-75 CNS): > 95.2 µM
- GI50 (SR leukemia): 31.1 µM
- TGI (SR leukemia): > 100 µM
- GI50 (SW-620 colon): 35.3 µM
- TGI (SW-620 colon): > 100 µM
- GI50 (T-47D breast): 25.2 µM
- TGI (T-47D breast): 87.6 µM
- GI50 (TK-10 renal): 29.1 µM
- TGI (TK-10 renal): > 100 µM
- GI50 (U251 CNS): 33.8 µM
- TGI (U251 CNS): > 100 µM
- GI50 (UACC-257 melanoma): 23.1 µM
- TGI (UACC-257 melanoma): 66.9 µM
- GI50 (UACC-62 melanoma): 24.3 µM
- TGI (UACC-62 melanoma): 72.2 µM
- GI50 (UO-31 renal): 26.5 µM
- TGI (UO-31 renal): 98.6 µM
